Measured values published in the supplement of paper PMC10307832.

Tests used:
Assay in all cases: relative viability (nuclei count vs DMSO), 5 days (fraction); higher = more cells survive
A549 = test system: A549
In short: (§1)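 The day after seeding in 1536-well plates, lung cancer cell lines were treated by pin tool with a single drug, or with a fixed anchor-drug dose together with five library-drug doses (not always all listed) in √10 steps. After 5 days, a combined fix-and-stain solution (final 0.05% Triton X-100, 1% formaldehyde, 1 ug/ml Hoechst) was added. Nuclei counted on 4× images gave relative viability as treated counts over vehicle counts, reported as the median of duplicate plates.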

Calu-6 = test system: Calu-6
In short: as §1

EBC-1 = test system: EBC-1
In short: as §1

HCC-366 = test system: HCC-366
In short: as §1

IA-LM = test system: IA-LM
In short: as §1

LOU-NH91 = test system: LOU-NH91
In short: as §1

LXF-289 = test system: LXF-289
In short: as §1

NCI-H1299 = test system: NCI-H1299
In short: as §1

NCI-H1437 = test system: NCI-H1437
In short: as §1

NCI-H1623 = test system: NCI-H1623
In short: as §1

NCI-H1703 = test system: NCI-H1703
In short: as §1

NCI-H2085 = test system: NCI-H2085
In short: as §1

NCI-H3122 = test system: NCI-H3122
In short: as §1

HCC-44 = test system: HCC-44
In short: as §1

Question: `CC(=O)O[C@@]12CO[C@@H]1C[C@H](O)[C@@]1(C)C(=O)[C@H](O)C3=C(C)[C@@H](OC(=O)[C@H](O)[C@@H](NC(=O)OC(C)(C)C)c4ccccc4)C[C@@](O)([C@@H](OC(=O)c4ccccc4)[C@H]21)C3(C)C` [Docetaxel] + COc1cc2c(Oc3ccc(NC(=O)C4(C(=O)Nc5ccc(F)cc5)CC4)cc3F)ccnc2cc1OCCCN1CCOCC1 [Foretinib] (partner 0.25 µM) was tested. Which relative viability (A549; first compound 0.0002 µM) did it give?
Answer: 0.957

Question: What about the relative viability (A549; first compound 0.000632 µM) of the same compound?
Answer: 0.795

Question: What about the relative viability (A549; first compound 0.002 µM) of the same compound?
Answer: 0.0591

Question: And the relative viability (A549; first compound 0.006325 µM)?
Answer: 0.0413

Question: What about the relative viability (A549; first compound 0.02 µM) of the same compound?
Answer: 0.0241

Question: And the relative viability (Calu-6; first compound 0.0002 µM)?
Answer: 0.897

Question: And the relative viability (Calu-6; first compound 0.000632 µM)?
Answer: 0.627

Question: And the relative viability (Calu-6; first compound 0.002 µM)?
Answer: 0.165

Question: And the relative viability (Calu-6; first compound 0.006325 µM)?
Answer: 0.081

Question: And the relative viability (Calu-6; first compound 0.02 µM)?
Answer: 0.0747

Question: What about the relative viability (EBC-1; first compound 0.0002 µM) of the same compound?
Answer: 0.0936

Question: And the relative viability (EBC-1; first compound 0.000632 µM)?
Answer: 0.0902

Question: And the relative viability (EBC-1; first compound 0.002 µM)?
Answer: 0.0988

Question: And the relative viability (EBC-1; first compound 0.006325 µM)?
Answer: 0.0924

Question: And the relative viability (EBC-1; first compound 0.02 µM)?
Answer: 0.09

Question: And the relative viability (HCC-366; first compound 0.0002 µM)?
Answer: 0.85

Question: And the relative viability (HCC-366; first compound 0.000632 µM)?
Answer: 0.122

Question: And the relative viability (HCC-366; first compound 0.002 µM)?
Answer: 0.201

Question: What about the relative viability (HCC-366; first compound 0.006325 µM) of the same compound?
Answer: 0.0376

Question: And the relative viability (HCC-366; first compound 0.02 µM)?
Answer: 0.0329

Question: What about the relative viability (IA-LM; first compound 0.0002 µM) of the same compound?
Answer: 1.05

Question: What about the relative viability (IA-LM; first compound 0.000632 µM) of the same compound?
Answer: 0.386

Question: And the relative viability (IA-LM; first compound 0.002 µM)?
Answer: 0.0546

Question: What about the relative viability (IA-LM; first compound 0.006325 µM) of the same compound?
Answer: 0.0457

Question: What about the relative viability (IA-LM; first compound 0.02 µM) of the same compound?
Answer: 0.0491

Question: What about the relative viability (LOU-NH91; first compound 0.0002 µM) of the same compound?
Answer: 0.936

Question: And the relative viability (LOU-NH91; first compound 0.000632 µM)?
Answer: 0.864

Question: And the relative viability (LOU-NH91; first compound 0.002 µM)?
Answer: 0.564

Question: And the relative viability (LOU-NH91; first compound 0.006325 µM)?
Answer: 0.334

Question: What about the relative viability (LOU-NH91; first compound 0.02 µM) of the same compound?
Answer: 0.284

Question: And the relative viability (LXF-289; first compound 0.0002 µM)?
Answer: 0.977

Question: What about the relative viability (LXF-289; first compound 0.000632 µM) of the same compound?
Answer: 0.924

Question: And the relative viability (LXF-289; first compound 0.002 µM)?
Answer: 0.207

Question: What about the relative viability (LXF-289; first compound 0.006325 µM) of the same compound?
Answer: 0.147

Question: And the relative viability (LXF-289; first compound 0.02 µM)?
Answer: 0.0982

Question: What about the relative viability (NCI-H1299; first compound 0.0002 µM) of the same compound?
Answer: 1.1

Question: And the relative viability (NCI-H1299; first compound 0.000632 µM)?
Answer: 1.14

Question: And the relative viability (NCI-H1299; first compound 0.002 µM)?
Answer: 1

Question: And the relative viability (NCI-H1299; first compound 0.006325 µM)?
Answer: 0.62

Question: What about the relative viability (NCI-H1299; first compound 0.02 µM) of the same compound?
Answer: 0.295

Question: What about the relative viability (NCI-H1437; first compound 0.0002 µM) of the same compound?
Answer: 1.12

Question: What about the relative viability (NCI-H1437; first compound 0.000632 µM) of the same compound?
Answer: 1.21

Question: And the relative viability (NCI-H1437; first compound 0.002 µM)?
Answer: 0.351

Question: And the relative viability (NCI-H1437; first compound 0.006325 µM)?
Answer: 0.273

Question: What about the relative viability (NCI-H1437; first compound 0.02 µM) of the same compound?
Answer: 0.188

Question: What about the relative viability (NCI-H1623; first compound 0.0002 µM) of the same compound?
Answer: 0.869

Question: What about the relative viability (NCI-H1623; first compound 0.000632 µM) of the same compound?
Answer: 0.834

Question: And the relative viability (NCI-H1623; first compound 0.002 µM)?
Answer: 0.584

Question: What about the relative viability (NCI-H1623; first compound 0.006325 µM) of the same compound?
Answer: 0.427

Question: What about the relative viability (NCI-H1623; first compound 0.02 µM) of the same compound?
Answer: 0.284

Question: What about the relative viability (NCI-H1703; first compound 0.000632 µM) of the same compound?
Answer: 0.351

Question: What about the relative viability (NCI-H1703; first compound 0.002 µM) of the same compound?
Answer: 0.341

Question: What about the relative viability (NCI-H1703; first compound 0.006325 µM) of the same compound?
Answer: 0.179

Question: What about the relative viability (NCI-H1703; first compound 0.02 µM) of the same compound?
Answer: 0.154

Question: And the relative viability (NCI-H2085; first compound 0.0002 µM)?
Answer: 0.852

Question: And the relative viability (NCI-H2085; first compound 0.000632 µM)?
Answer: 0.965

Question: What about the relative viability (NCI-H2085; first compound 0.002 µM) of the same compound?
Answer: 0.568

Question: And the relative viability (NCI-H2085; first compound 0.006325 µM)?
Answer: 0.34

Question: What about the relative viability (NCI-H2085; first compound 0.02 µM) of the same compound?
Answer: 0.414

Question: What about the relative viability (NCI-H3122; first compound 0.0002 µM) of the same compound?
Answer: 0.993

Question: And the relative viability (NCI-H3122; first compound 0.000632 µM)?
Answer: 0.901

Question: What about the relative viability (NCI-H3122; first compound 0.002 µM) of the same compound?
Answer: 0.761

Question: What about the relative viability (NCI-H3122; first compound 0.006325 µM) of the same compound?
Answer: 0.16

Question: And the relative viability (NCI-H3122; first compound 0.02 µM)?
Answer: 0.106

Question: Which results are given for `CC(=O)O[C@@]12CO[C@@H]1C[C@H](O)[C@@]1(C)C(=O)[C@H](O)C3=C(C)[C@@H](OC(=O)[C@H](O)[C@@H](NC(=O)OC(C)(C)C)c4ccccc4)C[C@@](O)([C@@H](OC(=O)c4ccccc4)[C@H]21)C3(C)C` [Docetaxel] + N=C(N)NC(=N)NCCc1ccccc1 [Phenformin] (partner 250 µM)?
Answer: relative viability (A549; first compound 0.0002 µM): 0.203; relative viability (A549; first compound 0.000632 µM): 0.0682; relative viability (A549; first compound 0.002 µM): 0.0555; relative viability (A549; first compound 0.006325 µM): 0.0466; relative viability (A549; first compound 0.02 µM): 0.0476; relative viability (HCC-366; first compound 0.0002 µM): 0.599; relative viability (HCC-366; first compound 0.000632 µM): 0.253; relative viability (HCC-366; first compound 0.002 µM): 0.147; relative viability (HCC-366; first compound 0.006325 µM): 0.0428; relative viability (HCC-366; first compound 0.02 µM): 0.0275; relative viability (HCC-44; first compound 0.0002 µM): 0.185; relative viability (HCC-44; first compound 0.000632 µM): 0.113; relative viability (HCC-44; first compound 0.002 µM): 0.113; relative viability (HCC-44; first compound 0.006325 µM): 0.101; relative viability (HCC-44; first compound 0.02 µM): 0.0735; relative viability (LOU-NH91; first compound 0.0002 µM): 0.661; relative viability (LOU-NH91; first compound 0.000632 µM): 0.625; relative viability (LOU-NH91; first compound 0.002 µM): 0.41; relative viability (LOU-NH91; first compound 0.006325 µM): 0.317; relative viability (LOU-NH91; first compound 0.02 µM): 0.269; relative viability (LXF-289; first compound 0.0002 µM): 0.521; relative viability (LXF-289; first compound 0.000632 µM): 0.42; relative viability (LXF-289; first compound 0.002 µM): 0.127; relative viability (LXF-289; first compound 0.006325 µM): 0.0915; relative viability (LXF-289; first compound 0.02 µM): 0.0828; relative viability (NCI-H1437; first compound 0.0002 µM): 0.3; relative viability (NCI-H1437; first compound 0.000632 µM): 0.294; relative viability (NCI-H1437; first compound 0.002 µM): 0.23; relative viability (NCI-H1437; first compound 0.006325 µM): 0.154; relative viability (NCI-H1437; first compound 0.02 µM): 0.123; relative viability (NCI-H1623; first compound 0.0002 µM): 0.54; relative viability (NCI-H1623; first compound 0.000632 µM): 0.568; relative viability (NCI-H1623; first compound 0.002 µM): 0.494; relative viability (NCI-H1623; first compound 0.006325 µM): 0.313; relative viability (NCI-H1623; first compound 0.02 µM): 0.239; relative viability (NCI-H2085; first compound 0.0002 µM): 0.735; relative viability (NCI-H2085; first compound 0.000632 µM): 0.651; relative viability (NCI-H2085; first compound 0.002 µM): 0.461; relative viability (NCI-H2085; first compound 0.006325 µM): 0.389; relative viability (NCI-H2085; first compound 0.02 µM): 0.194; relative viability (NCI-H3122; first compound 0.0002 µM): 0.368; relative viability (NCI-H3122; first compound 0.000632 µM): 0.345; relative viability (NCI-H3122; first compound 0.002 µM): 0.261; relative viability (NCI-H3122; first compound 0.006325 µM): 0.152; relative viability (NCI-H3122; first compound 0.02 µM): 0.139
